Legend:
Assay type in all cases: cell-based, human
DLD1_ABCA1 cells = test: Cell viability and proliferation assay (XCELLigence); details: RVX-208 30 μm 72 hours then 15 μM; DLD1 cells overexpressing ABCA1
Protocol: FIG. 6. A) Proliferation curve in a viability assay carried out by means of XCELLigence technology. The results for the stable cell line overexpressing ABCA1 in the absence and presence of ApoA1 are shown. The cells were treated for 72 hours before the experiment with 40 μg/ml of ApoA1 and with a concentration of 20 μg/ml during acquisition. B) Migration and invasion assays. The method followed was the same as the one described in FIG. 1. (**p-value=0.003; ****p-value<0.0001). C) ABCA1 messenger RNA level (left panel) and ABCA1 protein level (right panel) in the presence and absence of treatment with ApoA1. Results are shown both for the control cells and for those cells overexpressing the transporter.
Cell viability and proliferation assays were carried out by means of XCELLigence technology (ACEA Biosciences, Inc.) following the manufacturer's indications. Migration and invasion assays were carried out in Corning® BioCoat™ Control plates (#354578) and Corning® BioCoat™ Matrigel plates (#354480), respectively, following the manufacturer's indications. […]
The inventors were able to confirm said results based on the treatment of DLD1 cells expressing ABCA1 with RVX-208 under the conditions already described in detail in Example 3. […] The levels of caveolin-1, a protein whose increased levels have been associated with increases in cell migration and invasion, were also analyzed in this experiment.

vimentin = test: Epithelial-mesenchymal transition marker expression by quantitative PCR; details: RVX-208 30 μm 72 hours then 15 μM
Protocol: (§1) FIG. 4. A) Proliferation curve in a viability assay carried out by means of XCELLigence technology. Growth of DLD1 cells treated with DMSO as the drug carrier and with Rvx-208 (30 μM). The significant differences existing in the slope of the graph, and therefore in the growth dynamics of the treated cells are shown in the right panel (**p-value=0.0087). B) Image representing the untreated cell cultures and those treated with Rvx-208. Expression levels of proteins E-cadherin and vimentin in the presence and absence of Rvx-208. Analysis performed by means of quantitative PCR. The relative expression levels normalized with respect to the untreated control are shown. C) Migration and invasion assays in the presence of Rcx-208. FIG. 7. A) Proliferation curve in a viability assay carried out by means of XCELLigence technology. Growth of DLD1 cells treated with DMSO as the drug carrier and with Rvx-208 (30 μM). The significant differences existing in the slope of the graph, and therefore in the growth dynamics of the treated cells are shown in the right panel (****p-value<0.0001). B) Migration and invasion assays. The method followed was the same as the one described in FIG. 2 (*p-value=0.0407; ****p-value<0.0001). C) Expression levels of proteins E-cadherin and Vimentin in the presence and absence of Rvx-208. Analysis performed by means of quantitative PCR. The relative expression levels normalized with respect to the untreated control are shown. D) ABCA1, ApoA1, caveolin-1, and α-tubulin immunodetection by means of Western blot. α-tubulin acts as load control. The results of the cells treated with Rvx-208 (30 μM) or with the DMSO carrier are shown. E) Cholesterol flux in cells treated with Rvx-208. The same assays were repeated by replacing ApoA1 with a treatment with RVX-208. In this case, DLD1 cells were pre-treated for 72 hours before the start of the experiment with RVX-208 at a concentration of 30 μm and were subjected to a treatment with 15 μM of RVX-208 during the development of the experiments. […] The inventors were able to confirm said results based on the treatment of DLD1 cells expressing ABCA1 with RVX-208 under the conditions already described in detail in Example 3. In this case, the DLD1 cells overexpressing ABCA1 were pre-treated for 72 hours before the start of the experiment with RVX-208 at a concentration of 30 μm and were subjected to a treatment with 15 μM of RVX-208 during the development of the experiments. […] The levels of caveolin-1, a protein whose increased levels have been associated with increases in cell migration and invasion, were also analyzed in this experiment.

E-cadherin = test: as above; details: RVX-208 30 μm 72 hours then 15 μM
Protocol: as §1

[1] = DLD1 cells overexpressing ABCA1

COc1cc(OC)c2c(=O)[nH]c(-c3cc(C)c(OCCO)c(C)c3)nc2c1 [RVX-208, 2-(4-(2-hydroxyethoxy)-3,5-dimethylphenyl)-5,7-dimethoxyquinazolin-4(3H)-one]
proliferative capacity (DLD1_ABCA1 cells): significant decrease in proliferative capacity
vimentin levels (vimentin; DLD1 cells): decrease in vimentin levels
vimentin levels (vimentin; [1]): decrease in vimentin levels
E-cadherin expression levels (E-cadherin; DLD1 cells): increase in E-cadherin expression levels
E-cadherin expression levels (E-cadherin; [1]): increase in E-cadherin expression levels
